Drawing on ChEMBL document CHEMBL4312022, “Design, synthesis, and biological evaluation of ligustrazine - betulin amino-acid/dipeptide derivatives as anti-tumor agents” (Eur J Med Chem, 2020), this text covers IC50 for 19 molecules.

SMILES strings stand for the structures. Some results are limits rather than exact numbers.

The test system of experiment [1] is HeLa. Description: Antiproliferative activity against human HeLa cells assessed as reduction in cell viability after 72 hrs by MTT assay. The format is functional, cell-based.
Experiment [2] concerns HepG2. The experiment is described as follows: Antiproliferative activity against human HepG2 cells assessed as reduction in cell viability after 72 hrs by MTT assay. It counts as functional, cell-based. As to conditions: HepG2, 72 h.
Experiment [3] deals with BGC-823. The experiment is described as follows: Antiproliferative activity against human BGC823 cells assessed as reduction in cell viability after 72 hrs by MTT assay. It counts as functional, cell-based. As to conditions: BGC-823, 72 h.
The test system of experiment [4] is HT-29. Description: Antiproliferative activity against human HT-29 cells assessed as reduction in cell viability after 72 hrs by MTT assay. It counts as functional, cell-based. The conditions noted are these: HT-29, 72 h.
Experiment [5] relates to MDCK. The experiment is described as follows: Cytotoxicity against MDCK cells assessed as reduction in cell viability after 72 hrs by MTT assay. The conditions noted are these: Canis lupus familiaris. It counts as cell-based.

As for `C=C(C)[C@@H]1CC[C@]2(COC(=O)c3nc(C)c(C)nc3C)CC[C@]3(C)[C@H](CC[C@@H]4[C@@]5(C)CC[C@H](O)C(C)(C)[C@@H]5CC[C@]43C)[C@@H]12`, the half-maximal inhibitory concentration (IC50) was 18.5 µM in experiment [1]; 13.6 µM in experiment [2]; 15 µM in experiment [3]; 16.3 µM in experiment [4]; more than 20 µM in experiment [5].
Turning to `C=C(C)[C@@H]1CC[C@]2(COC(=O)c3nc(C)c(C)nc3C)CC[C@]3(C)[C@H](CC[C@@H]4[C@@]5(C)CC[C@H](OC(=O)CN(C)C(=O)CCNC(C)=O)C(C)(C)[C@@H]5CC[C@]43C)[C@@H]12`, the IC50 in experiment [1] stood at 4.13 µM; in experiment [2], 11 µM; in experiment [3], 6.94 µM; in experiment [4], 12.5 µM; in experiment [5], 18.6 µM.
Turning to `C=C(C)[C@@H]1CC[C@]2(COC(=O)c3nc(C)c(C)nc3C)CC[C@]3(C)[C@H](CC[C@@H]4[C@@]5(C)CC[C@H](OC(=O)[C@@H]6CCCN6C(=O)[C@@H]6CCCN6C(C)=O)C(C)(C)[C@@H]5CC[C@]43C)[C@@H]12`, the concentration for half-maximal inhibition (IC50) was 11.1 µM in experiment [1]; more than 20 µM in experiment [2]; more than 20 µM in experiment [3]; more than 20 µM in experiment [4]; more than 20 µM in experiment [5].
Consider `C=C(C)[C@@H]1CC[C@]2(COC(=O)c3nc(C)c(C)nc3C)CC[C@]3(C)[C@H](CC[C@@H]4[C@@]5(C)CC[C@H](OC(=O)CNC(=O)[C@@H]6CCCN6C(C)=O)C(C)(C)[C@@H]5CC[C@]43C)[C@@H]12`, for which the IC50 was 10.1 µM in experiment [1]; more than 20 µM in experiment [2]; 8.15 µM in experiment [3]; 12.3 µM in experiment [4]; 19.8 µM in experiment [5].
For the molecule `C=C(C)[C@@H]1CC[C@]2(COC(=O)c3nc(C)c(C)nc3C)CC[C@]3(C)[C@H](CC[C@@H]4[C@@]5(C)CC[C@H](OC(=O)[C@@H]6CCC(=O)N6)C(C)(C)[C@@H]5CC[C@]43C)[C@@H]12`, the IC50 in experiment [1] stood at 19.4 µM; in experiment [2], 16.5 µM; in experiment [3], 8.62 µM; in experiment [4] it was 15.3 µM; in experiment [5], 16.7 µM.
For `C=C(C)[C@@H]1CC[C@]2(COC(=O)c3nc(C)c(C)nc3C)CC[C@]3(C)[C@H](CC[C@@H]4[C@@]5(C)CC[C@H](OC(=O)[C@@H]6CCCN6C(=O)CCNC(C)=O)C(C)(C)[C@@H]5CC[C@]43C)[C@@H]12`, in that order: 10.4 µM, more than 20 µM, more than 20 µM, more than 20 µM and more than 20 µM.
`C=C(C)[C@@H]1CC[C@]2(COC(=O)c3nc(C)c(C)nc3C)CC[C@]3(C)[C@H](CC[C@@H]4[C@@]5(C)CC[C@H](OC(=O)CNC(=O)CCNC(C)=O)C(C)(C)[C@@H]5CC[C@]43C)[C@@H]12`: the half-maximal inhibitory concentration (IC50) is 6.72 µM in experiment [1]; more than 20 µM in experiment [2]; 7.62 µM in experiment [3]; more than 20 µM in experiment [4]; 15.8 µM in experiment [5].
Take `C=C(C)[C@@H]1CC[C@]2(COC(=O)c3nc(C)c(C)nc3C)CC[C@]3(C)[C@H](CC[C@@H]4[C@@]5(C)CC[C@H](OC(=O)[C@@H](N)C(C)C)C(C)(C)[C@@H]5CC[C@]43C)[C@@H]12`: the concentration for half-maximal inhibition (IC50) in experiment [1], in experiment [2], in experiment [3], in experiment [4] and in experiment [5] was more than 20 µM in each case.
In the case of `C=C(C)[C@@H]1CC[C@]2(COC(=O)c3nc(C)c(C)nc3C)CC[C@]3(C)[C@H](CC[C@@H]4[C@@]5(C)CC[C@H](OC(=O)CNC(=O)CNC(C)=O)C(C)(C)[C@@H]5CC[C@]43C)[C@@H]12`, the IC50 is more than 20 µM in experiment [1]; more than 20 µM in experiment [2]; 7.85 µM in experiment [3]; 11.2 µM in experiment [4]; 14.5 µM in experiment [5].
Take `C=C(C)[C@@H]1CC[C@]2(COC(=O)c3nc(C)c(C)nc3C)CC[C@]3(C)[C@H](CC[C@@H]4[C@@]5(C)CC[C@H](OC(=O)[C@H](C)N)C(C)(C)[C@@H]5CC[C@]43C)[C@@H]12`: the concentration for half-maximal inhibition (IC50) is 9.22 µM in experiment [1]; 10.1 µM in experiment [2]; 7.83 µM in experiment [3]; 9.29 µM in experiment [4]; 18.5 µM in experiment [5].
As for `C=C(C)[C@@H]1CC[C@]2(COC(=O)c3nc(C)c(C)nc3C)CC[C@]3(C)[C@H](CC[C@@H]4[C@@]5(C)CC[C@H](OC(=O)[C@@H](N)[C@@H](C)CC)C(C)(C)[C@@H]5CC[C@]43C)[C@@H]12`, the IC50 in experiment [1] was more than 20 µM; in experiment [2], more than 20 µM; in experiment [3], more than 20 µM; in experiment [4] it was 16.6 µM; in experiment [5], more than 20 µM.
On to `C=C(C)[C@@H]1CC[C@]2(COC(=O)c3nc(C)c(C)nc3C)CC[C@]3(C)[C@H](CC[C@@H]4[C@@]5(C)CC[C@H](OC(=O)[C@@H](N)CC(C)C)C(C)(C)[C@@H]5CC[C@]43C)[C@@H]12`, for which the IC50 in experiment [1], in experiment [2], in experiment [3], in experiment [4] and in experiment [5] was more than 20 µM throughout.
Turning to `C=C(C)[C@@H]1CC[C@]2(CO)CC[C@]3(C)[C@H](CC[C@@H]4[C@@]5(C)CC[C@H](O)C(C)(C)[C@@H]5CC[C@]43C)[C@@H]12` [BETULIN], the IC50 in experiment [1] is 12.2 µM; in experiment [2], more than 20 µM; in experiment [3], more than 20 µM; in experiment [4] it was more than 20 µM; in experiment [5], more than 20 µM.
As to `C=C(C)[C@@H]1CC[C@]2(COC(=O)c3nc(C)c(C)nc3C)CC[C@]3(C)[C@H](CC[C@@H]4[C@@]5(C)CC[C@H](OC(=O)[C@@H]6CCCN6C(=O)CNC(C)=O)C(C)(C)[C@@H]5CC[C@]43C)[C@@H]12`, the IC50 in experiment [1] worked out at 17.9 µM; in experiment [2], 18.4 µM; in experiment [3], 18.9 µM; in experiment [4] it was 14.7 µM; in experiment [5], 18.9 µM.
As for `C=C(C)[C@@H]1CC[C@]2(COC(=O)c3nc(C)c(C)nc3C)CC[C@]3(C)[C@H](CC[C@@H]4[C@@]5(C)CC[C@H](OC(=O)CN(C)C(=O)CNC(C)=O)C(C)(C)[C@@H]5CC[C@]43C)[C@@H]12`, the IC50 in experiment [1] is 7.96 µM; in experiment [2] it was more than 20 µM; in experiment [3] it was 10.3 µM; in experiment [4], more than 20 µM; in experiment [5] it was more than 20 µM.
Consider `C=C(C)[C@@H]1CC[C@]2(COC(=O)c3nc(C)c(C)nc3C)CC[C@]3(C)[C@H](CC[C@@H]4[C@@]5(C)CC[C@H](OC(=O)CNC)C(C)(C)[C@@H]5CC[C@]43C)[C@@H]12`, for which the IC50 in experiment [1] was determined as 7.88 µM; in experiment [2] it was 5.93 µM; in experiment [3], 8.23 µM; in experiment [4], 7.92 µM; in experiment [5] it was 14.6 µM.
On to `C=C(C)[C@@H]1CC[C@]2(COC(=O)c3nc(C)c(C)nc3C)CC[C@]3(C)[C@H](CC[C@@H]4[C@@]5(C)CC[C@H](OC(=O)[C@@H](N)Cc6ccccc6)C(C)(C)[C@@H]5CC[C@]43C)[C@@H]12`, for which the IC50 in experiment [1], in experiment [2], in experiment [3], in experiment [4] and in experiment [5] was more than 20 µM each time.
Take `C=C(C)[C@@H]1CC[C@]2(COC(=O)c3nc(C)c(C)nc3C)CC[C@]3(C)[C@H](CC[C@@H]4[C@@]5(C)CC[C@H](OC(=O)CN(C)C(=O)[C@@H]6CCCN6C(C)=O)C(C)(C)[C@@H]5CC[C@]43C)[C@@H]12`: the IC50 in experiment [1] was 10.5 µM; in experiment [2] it was more than 20 µM; in experiment [3] it was 7.93 µM; in experiment [4], 9.71 µM; in experiment [5] it was more than 20 µM.
As for `C=C(C)[C@@H]1CC[C@]2(COC(=O)c3nc(C)c(C)nc3C)CC[C@]3(C)[C@H](CC[C@@H]4[C@@]5(C)CC[C@H](OC(=O)[C@@H]6CCCN6)C(C)(C)[C@@H]5CC[C@]43C)[C@@H]12`, the concentration for half-maximal inhibition (IC50) in experiment [1] turned out to be 17.2 µM; in experiment [2], 19.6 µM; in experiment [3], 10.4 µM; in experiment [4] it was 15 µM; in experiment [5], 17.6 µM.
